Measured values as given in ChEMBL document CHEMBL3351580, “Pyrano-isochromanones as IL-6 inhibitors: synthesis, in vitro and in vivo antiarthritic activity” (J Med Chem, 2014).
Activity calls are given as the source filed them. The calls are words filed in the database; no cut-off is given here.

Key:
[1] = Inhibition of concanavalin A-induced cell proliferation of T cells (unknown origin) at 10 uM after 72 hrs by MTT assay; assay type: functional
[2] = tested on: B-cell; test: Inhibition of LPS-induced cell proliferation of B cells (unknown origin) at 10 uM after 72 hrs by MTT assay; assay type: functional
[3] = tested on: THP-1; test: Inhibition of LPS-induced IL6 production in human THP1 cells after 24 hrs; assay type: functional, cell-based; settings: THP-1, 24 h
[4] = tested on: THP-1; test: Inhibition of LPS-induced TNFalpha production in human THP1 cells after 24 hrs; assay type: functional, cell-based; settings: THP-1, 24 h
[5] = tested on: THP-1; test: Inhibition of LPS-induced IL-1beta production in human THP1 cells at 10 uM after 24 hrs; assay type: functional; settings: THP-1, 24 h
[6] = tested on: THP-1; test: Inhibition of LPS-induced nitric oxide production in human THP1 cells at 10 uM after 24 hrs by Griess assay; assay type: functional; settings: THP-1, 24 h
[7] = Therapeutic index, ratio of cytotoxic IC50 for human THP1 cells by MTT assay to IC50 for inhibition of LPS-induced IL6 production in human THP1 cells; assay type: cell-based, THP-1; settings: read-out: Ratio IC50
[8] = tested on: Mus musculus; test: Antiinflammatory activity in BALB/c mouse assessed as serum TNFalpha level at 100 mg/kg, po qd for 5 days followed by LPS challenge 1 hr after last compound dose on fifth day and measured 4 hrs post LPS challenge by ELISA method (reference value: 717 +/- 218 pg/mL); assay type: functional
[9] = tested on: Mus musculus; test: Antiinflammatory activity in BALB/c mouse assessed as serum IL6 level at 10 mg/kg, po qd for 5 days followed by LPS challenge 1 hr after last compound dose on fifth day and measured 4 hrs post LPS challenge by ELISA method (reference value: 410 +/- 95 pg/mL); assay type: functional
[10] = tested on: Mus musculus; test: Antiinflammatory activity in BALB/c mouse assessed as serum IL6 level at 100 mg/kg, po qd for 5 days followed by LPS challenge 1 hr after last compound dose on fifth day and measured 4 hrs post LPS challenge by ELISA method (reference value: 410 +/- 95 pg/mL); assay type: functional
[11] = tested on: Mus musculus; test: Antiinflammatory activity in BALB/c mouse assessed as serum nitric oxide level at 100 mg/kg, po qd for 5 days followed by LPS challenge 1 hr after last compound dose on fifth day and measured 4 hrs post LPS challenge by Griess assay (reference value: 6.95 +/- 1.81 uM); assay type: functional
[12] = tested on: Mus musculus; test: Antiarthritic activity in BALB/c mouse assessed as reduction in SRBC-induced blood IFNgamma level administered orally once daily for 14 days measured 4 hrs post last dose by ELISA method; assay type: functional, organism-based
[13] = tested on: Mus musculus; test: Antiarthritic activity in BALB/c mouse assessed as reduction in SRBC-induced blood IL4 level administered orally once daily for 14 days measured 4 hrs post last dose by ELISA method; assay type: functional, organism-based
[14] = tested on: Mus musculus; test: Antiarthritic activity in BALB/c mouse assessed as reduction in SRBC-induced blood IL2 level administered orally once daily for 14 days measured 4 hrs post last dose by ELISA method; assay type: functional, organism-based
[15] = tested on: Mus musculus; test: Immunosuppressive activity in BALB/c mouse assessed as reduction in SRBC-induced humoral immunity by measuring IgG level at 3 to 30 mg/kg, po administered once daily for 14 days measured 4 hrs post last dose; assay type: functional, organism-based
[16] = tested on: Mus musculus; test: Immunosuppressive activity in BALB/c mouse assessed as reduction in SRBC-induced DTH response at 3 to 30 mg/kg, po administered once daily for 14 days measured 4 hrs post last dose; assay type: functional, organism-based
[17] = tested on: Mus musculus; test: Antiarthritic activity in DBA/1J mouse collagen-induced arthritis model assessed as reduction in paw swelling at 30 mg/kg, po administered once daily for 49 days starting from onset of disease; assay type: functional; settings: 1176 h
[18] = tested on: Mus musculus; test: Antiarthritic activity in DBA/1J mouse collagen-induced arthritis model assessed as reduction in anticollagen antibody IgG1 level at 3 to 30 mg/kg, po administered once daily for 49 days starting from onset of disease and measured after 14 days of disease onset by ELISA method; assay type: functional, organism-based
[19] = tested on: Mus musculus; test: Antiarthritic activity in DBA/1J mouse collagen-induced arthritis model assessed as reduction in anticollagen antibody IgG2a level at 3 to 30 mg/kg, po administered once daily for 49 days starting from onset of disease and measured after 14 days of disease onset by ELISA method; assay type: functional, organism-based
[20] = tested on: Mus musculus; test: Antiarthritic activity in DBA/1J mouse collagen-induced arthritis model assessed as reduction in TNFalpha level at 3 to 30 mg/kg, po administered once daily for 49 days starting from onset of disease and measured after 3 to 49 days of disease onset by ELISA method; assay type: functional, organism-based
[21] = tested on: Mus musculus; test: Antiarthritic activity in DBA/1J mouse collagen-induced arthritis model assessed as reduction in IL6 level at 3 to 30 mg/kg, po administered once daily for 49 days starting from onset of disease and measured after 3 to 49 days of disease onset by ELISA method; assay type: functional, organism-based
[22] = tested on: Mus musculus; test: Antiarthritic activity in DBA/1J mouse collagen-induced arthritis model assessed as reduction in IL-1beta level at 3 to 30 mg/kg, po administered once daily for 49 days starting from onset of disease and measured after 3 to 49 days of disease onset by ELISA method; assay type: functional, organism-based
[23] = Solubility in PBS buffer; assay type: physicochemical
[24] = Solubility in SGF solution; assay type: physicochemical
[25] = Solubility in SIF solution; assay type: physicochemical
[26] = molecular target: CYP3A4 (Homo sapiens, UniProt P08684); test: Inhibition of CYP3A4 (unknown origin) at 10 uM; assay type: ADME
CYP3A4, sequence (P08684 whole entry): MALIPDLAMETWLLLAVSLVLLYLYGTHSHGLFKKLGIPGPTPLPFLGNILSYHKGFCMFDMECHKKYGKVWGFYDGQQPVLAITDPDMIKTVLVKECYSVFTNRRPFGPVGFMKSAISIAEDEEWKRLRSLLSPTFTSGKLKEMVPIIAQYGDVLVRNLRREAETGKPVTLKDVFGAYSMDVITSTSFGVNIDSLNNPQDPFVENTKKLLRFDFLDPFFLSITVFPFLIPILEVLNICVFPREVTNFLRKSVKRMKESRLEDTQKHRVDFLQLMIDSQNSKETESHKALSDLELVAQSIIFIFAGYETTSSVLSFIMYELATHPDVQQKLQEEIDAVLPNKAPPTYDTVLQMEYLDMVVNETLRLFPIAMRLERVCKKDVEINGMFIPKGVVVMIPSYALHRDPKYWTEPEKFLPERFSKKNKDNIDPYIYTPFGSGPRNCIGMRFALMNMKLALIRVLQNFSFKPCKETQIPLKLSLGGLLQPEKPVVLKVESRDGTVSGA

[27] = molecular target: Cytochrome P450 2D6 (Homo sapiens, UniProt P10635); test: Activation of CYP2D6 (unknown origin) assessed as increase in enzyme activity at 10 uM; assay type: ADME
Cytochrome P450 2D6, sequence (P10635 whole entry): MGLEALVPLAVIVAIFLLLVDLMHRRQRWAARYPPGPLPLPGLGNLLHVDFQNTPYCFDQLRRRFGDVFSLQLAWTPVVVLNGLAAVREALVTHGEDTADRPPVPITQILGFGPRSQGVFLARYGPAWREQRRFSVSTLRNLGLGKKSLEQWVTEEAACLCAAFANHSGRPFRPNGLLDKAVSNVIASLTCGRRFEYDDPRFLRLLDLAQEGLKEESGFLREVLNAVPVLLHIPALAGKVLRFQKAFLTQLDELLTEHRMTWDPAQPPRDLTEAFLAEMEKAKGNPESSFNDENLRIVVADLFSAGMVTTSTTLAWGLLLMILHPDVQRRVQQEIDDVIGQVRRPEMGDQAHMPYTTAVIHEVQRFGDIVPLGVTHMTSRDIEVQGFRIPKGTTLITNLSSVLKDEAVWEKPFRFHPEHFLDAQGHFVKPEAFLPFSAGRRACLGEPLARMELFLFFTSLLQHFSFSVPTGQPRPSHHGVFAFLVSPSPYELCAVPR

[28] = molecular target: T1, Cytochrome P450 1A2 (Homo sapiens, UniProt P05177); test: Activation of CYP1A2 (unknown origin) assessed as increase in enzyme activity at 10 uM; assay type: ADME
T1 sequence (P05177 whole entry): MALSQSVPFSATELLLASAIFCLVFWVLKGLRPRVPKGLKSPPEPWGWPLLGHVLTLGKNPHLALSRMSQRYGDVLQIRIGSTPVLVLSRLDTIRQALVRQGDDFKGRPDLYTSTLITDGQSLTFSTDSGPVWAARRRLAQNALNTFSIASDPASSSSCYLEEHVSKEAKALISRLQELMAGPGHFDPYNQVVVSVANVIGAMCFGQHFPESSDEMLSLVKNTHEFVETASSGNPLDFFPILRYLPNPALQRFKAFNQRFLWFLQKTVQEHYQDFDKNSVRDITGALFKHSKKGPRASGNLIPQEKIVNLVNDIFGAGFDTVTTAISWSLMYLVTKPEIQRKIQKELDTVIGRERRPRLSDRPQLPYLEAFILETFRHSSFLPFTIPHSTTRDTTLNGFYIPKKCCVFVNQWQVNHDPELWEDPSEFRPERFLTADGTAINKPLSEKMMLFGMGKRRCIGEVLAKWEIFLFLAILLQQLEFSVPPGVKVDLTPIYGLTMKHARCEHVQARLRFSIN

[29] = molecular target: CYP2C19 (Homo sapiens, UniProt P33261); test: Inhibition of CYP2C19 (unknown origin) at 10 uM; assay type: ADME
CYP2C19, sequence (P33261 whole entry): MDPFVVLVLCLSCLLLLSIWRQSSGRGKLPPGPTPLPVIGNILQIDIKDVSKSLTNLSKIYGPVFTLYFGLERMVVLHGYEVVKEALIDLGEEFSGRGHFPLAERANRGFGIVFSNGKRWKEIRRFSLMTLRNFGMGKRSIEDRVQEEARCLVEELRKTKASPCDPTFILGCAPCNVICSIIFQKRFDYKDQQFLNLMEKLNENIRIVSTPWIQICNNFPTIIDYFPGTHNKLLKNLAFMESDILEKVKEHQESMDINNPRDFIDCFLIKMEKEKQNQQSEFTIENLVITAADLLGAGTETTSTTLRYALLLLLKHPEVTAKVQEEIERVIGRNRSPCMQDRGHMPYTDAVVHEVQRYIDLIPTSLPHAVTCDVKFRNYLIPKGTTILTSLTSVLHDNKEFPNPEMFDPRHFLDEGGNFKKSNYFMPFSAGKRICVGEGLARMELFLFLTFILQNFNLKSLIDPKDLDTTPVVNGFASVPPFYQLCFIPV

[30] = Apparent permeability from basolateral to apical side in human Caco2 cells; assay type: ADME, cell-based; settings: Caco-2
[31] = Efflux ratio in human Caco2 cells; assay type: ADME, cell-based; settings: Caco-2

IC50 [3]: 0.166 µM | IC50 [4]: 13.4 µM | solubility [23]: > 1.5 mg/mL | solubility [24]: > 1.5 mg/mL | solubility [25]: > 1.5 mg/mL | inhibition at 10 µM [26]: 15% | Activity [27]: 36% | Activity [28]: 10% | inhibition at 10 µM [29]: 6% | Papp B→A [30]: 15.9 nm/s | efflux ratio [31]: 2.2
SMILES: CCN(CC)Cc1c(O)c(OC)c(O)c2c1C(=O)O[C@@H]1[C@@H](O)[C@H](O)[C@@H](CO)O[C@@H]21
inhibition at 10 µM [1]: 53.7% | inhibition at 10 µM [2]: 47.9% | inhibition at 10 µM [5]: 41% | inhibition at 10 µM [6]: 41% | selectivity ratio [7]: > 400 | Activity [8]: 388 pg/mL | Activity [9]: 102 pg/mL | Activity [10]: 275 pg/mL | Activity [11]: 3 µM | inhibition [12]: Dose-dependent effect | inhibition [13]: Dose-dependent effect | inhibition [14]: Dose-dependent effect | inhibition [15]: Active | inhibition [16]: Active | inhibition in vivo at 30 mg/kg [17]: 28% | inhibition [18]: Active | inhibition [19]: Active | inhibition [20]: Active | inhibition [21]: Active | inhibition [22]: Active
